For orientation: melting point means the temperature, or range, at which the solid turns liquid.

Results on 5 compounds are retold here after patent publication US20090291973A1, “Novel Quinazoline Derivatives and Their Medical Use” (NeuroSearch A/S, priority 2005, published 2009).

One data set has as its target T1, human Kv72+3 channels (Homo sapiens, UniProt O43525+O43526).
T1 construct: expressed in transfected cells
As to the kind of experiment: patch-clamp, HEK293 cell lines stably expressing the human Kv72+3 channels. In kind it is cell-based. To be noted: 3 μM, HEK293 cells stably expressing human Kv72+3 channels.

`COc1ccc(C(C)C(=O)Nn2c(C(C)C)nc3cc(C(F)(F)F)ccc3c2=O)cc1` (centres unmarked) [Compound B20, N-(2-Isopropyl-4-oxo-7-trifluoromethyl-4H-quinazolin-3-yl)-2-(4-methoxy-phenyl)-propionamide]: at human Kv72+3 channels, the “activation compared to control” value came to 87%. Same read-out and setting: to `CC(C)c1nc2ccccc2c(=O)n1NC(=O)C(C)c1cccc(F)c1` (centres unmarked) [Compound B16, 2-(3-Fluoro-phenyl)-N-(2-isopropyl-4-oxo-4H-quinazolin-3-yl)-propionamide] belongs 60%. Compound `CC(C)c1nc2ccccc2c(=O)n1NC(=O)C(c1ccccc1)C(C)C` (centres unmarked) [Compound B2, N-(2-Isopropyl-4-oxo-4H-quinazolin-3-yl)-3-methyl-2-phenyl-butyramide] had a melting point of 188 to 193 °C. Same read-out and setting: to `CCc1nc2cc(F)ccc2c(=O)n1NC(=O)C(C)c1ccccc1` (centres unmarked) [Compound A1, N-(2-Ethyl-7-fluoro-4-oxo-4H-quinazolin-3-yl)-2-phenyl-propionamide] belongs 57 to 63 °C. On the same count and under the same terms, to `CC(C)c1nc2ccccc2c(=O)n1NC(=O)C(C)c1ccccc1` (centres unmarked) [Compound B1, N-(2-Isopropyl-4-oxo-4H-quinazolin-3-yl)-2-phenyl-propionamide] belongs 48 to 55 °C.
